Laboratory results: patent US20240067632A1, “WEE1 Degrading Compounds and Uses Thereof” (Bristol-Myers Squibb Company, priority 2022, published 2024)
Where two headings read alike, the source gives them in different places.

Key:
WEE1 = target: T1, WEE1 (Homo sapiens, UniProt P30291+Q96SW2); experiment: WEE1-ePL degradation assay (LentiX-WEE1-ePL-GSPT1-ND cells, InCELL Hunter luminescence, 4 h); assay type: cell-based; details: 293T-LentiX WEE1-ePL cells; for DC50: read-out: 293T-LentiX WEE1-ePL Degradation 4 hr (EC50)
T1 construct: C-terminal ePL-tagged (DiscoverX, Fremont, CA) full-length WEE1 expression construct; expressed in transfected cells; host or cells: LentiX-HEK293T (Invitrogen), lentiviral transduction; co-expressing GSPT1-GN (G576N, lacking the first 158 amino acids)
In short: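 Luminescent readout (InCELL Hunter, 30 min RT) of WEE1-ePL levels in transduced HEK293T cells after 4 h compound exposure at 37 °C. Dosing: 10 points, 3-fold steps, top 1 uM or 10 uM. EC50 from four-parameter logistic fit; Ymax set by DMSO.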

MKN45 cells = experiment: MKN45 cell proliferation assay (Cell-Titer-Glo, 120 h); assay type: cell-based; details: for EC50: Homo sapiens, MKN-45, 120 h, Cell-Titer-Glo, read-out: MKN45 Cell Prolif. 120 hr (EC50); for MKN45 Cell Prolif. 120 hr (Ymin-Obs): minimal percent of DMSO control observed in the concentrations tested
In short: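 Growth inhibition was read as blank-corrected Cell-Titer-Glo luminescence expressed as percent DMSO control after 120 h at 37 C, 400 cells/well. Compounds tested in triplicate as 10-point half-log series from 1 or 10 uM, 0.1% DMSO; four-parameter fit gave EC50, and lowest observed percent control was reported as Ymin-obs.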

[1] = lower limit of the fit (0 = luciferase inhibitor, Ymax = DMSO control)
[2] = lower limit of the fit (Ymin=0 luciferase inhibitor, Ymax DMSO control)

293T-LentiX WEE1-ePL Degradation 4 hr (Ymin) (WEE1; [1])	EC50 (MKN45 cells; growth inhibition)	DC50 (WEE1)	293T-LentiX WEE1-ePL Degradation 4 hr (Ymin) (WEE1; [2])	EC50 (MKN45 cells)	Structure (SMILES)	MKN45 Cell Prolif. 120 hr (Ymin-Obs) (MKN45 cells)
94	> 10000 nM				C[C@]1(Oc2ccc3c(c2)CN(C2CCC(=O)NC2=O)C3=O)CCN(Cc2ccc3nc(C#N)ccc3c2)C1 (stereo partly drawn) [6-{[(3S)-3-{[2-(2,6-dioxopiperidin-3-yl)-1-oxo-2,3-dihydro-1H-isoindol-5-yl]oxy}-3-methylpyrrolidin-1-yl]methyl}quinoline-2-carbonitrile]	80.88
66.8	> 10000 nM	20.7 nM			Cc1cc(C#N)c2cc(CN3CC[C@H](Oc4ccc5c(c4)CN(C4CCC(=O)NC4=O)C5=O)C3)ccc2n1 (stereo partly drawn) [6-{[(3S)-3-{[2-(2,6-dioxopiperidin-3-yl)-1-oxo-2,3-dihydro-1H-isoindol-5-yl]oxy}pyrrolidin-1-yl]methyl}-2-methylquinoline-4-carbonitrile]	86.89
35	32.8 nM	7.79 nM			N#Cc1nc2ccc(CN3CC[C@H](Oc4ccc5c(c4)CN(C4CCC(=O)NC4=O)C5=O)C3)cc2cc1F (stereo partly drawn) [6-{[(3S)-3-{[2-(2,6-dioxopiperidin-3-yl)-1-oxo-2,3-dihydro-1H-isoindol-5-yl]oxy}pyrrolidin-1-yl]methyl}-3-fluoroquinoline-2-carbonitrile]	12.265
29.42	17.5 nM	9.05 nM			CN(C)C(=O)c1ccc2cc(CN3CC[C@H](Oc4ccc5c(c4)CN(C4CCC(=O)NC4=O)C5=O)C3)ccc2n1 (stereo partly drawn) [6-{[(3S)-3-{[2-(2,6-dioxopiperidin-3-yl)-1-oxo-2,3-dihydro-1H-isoindol-5-yl]oxy}pyrrolidin-1-yl]methyl}-N,N-dimethylquinoline-2-carboxamide]	8.56
38	337 nM	175 nM			CNC(=O)c1ncc2cc(CN3CC[C@H](Oc4ccc5c(c4)CN(C4CCC(=O)NC4=O)C5=O)C3)ccc2n1 (stereo partly drawn) [6-{[(3S)-3-{[2-(2,6-dioxopiperidin-3-yl)-1-oxo-2,3-dihydro-1H-isoindol-5-yl]oxy}pyrrolidin-1-yl]methyl}-N-methylquinazoline-2-carboxamide]	8.51
26.91	11.7 nM	4.27 nM			CNC(=O)c1ccc2cc(CN3CC[C@H](Oc4ccc5c(c4)CN(C4CCC(=O)NC4=O)C5=O)C3)ccc2n1 (stereo partly drawn) [6-{[(3S)-3-{[2-(2,6-dioxopiperidin-3-yl)-1-oxo-2,3-dihydro-1H-isoindol-5-yl]oxy}pyrrolidin-1-yl]methyl}-N-methylquinoline-2-carboxamide]	9.36
64	> 10000 nM	61 nM			N#Cc1ccc(CN2CC[C@H](Oc3ccc4c(c3)CN(C3CCC(=O)NC3=O)C4=O)C2)nc1 (stereo partly drawn) [6-{[(3S)-3-{[2-(2,6-dioxopiperidin-3-yl)-1-oxo-2,3-dihydro-1H-isoindol-5-yl]oxy}pyrrolidin-1-yl]methyl}pyridine-3-carbonitrile]	69.48
35	73 nM	12.1 nM			N#Cc1ncc2cc(CN3CC[C@H](Oc4ccc5c(c4)CN(C4CCC(=O)NC4=O)C5=O)C3)ccc2n1 (stereo partly drawn) [6-{[(3S)-3-{[2-(2,6-dioxopiperidin-3-yl)-1-oxo-2,3-dihydro-1H-isoindol-5-yl]oxy}pyrrolidin-1-yl]methyl}quinazoline-2-carbonitrile]	17.27
27.49	7.92 nM	3.05 nM			N#Cc1ccc2cc(CN3CC[C@H](Oc4ccc5c(c4)CN(C4CCC(=O)NC4=O)C5=O)C3)ccc2n1 (stereo partly drawn) [6-{[(3S)-3-{[2-(2,6-dioxopiperidin-3-yl)-1-oxo-2,3-dihydro-1H-isoindol-5-yl]oxy}pyrrolidin-1-yl]methyl}quinoline-2-carbonitrile]	9.504
26.545	17.1 nM	3.53 nM			NC(=O)c1ccc2cc(CN3CC[C@H](Oc4ccc5c(c4)CN(C4CCC(=O)NC4=O)C5=O)C3)ccc2n1 (stereo partly drawn) [6-{[(3S)-3-{[2-(2,6-dioxopiperidin-3-yl)-1-oxo-2,3-dihydro-1H-isoindol-5-yl]oxy}pyrrolidin-1-yl]methyl}quinoline-2-carboxamide]	10.71
33	44 nM	4.18 nM			N#Cc1cnc2ccc(CN3CC[C@H](Oc4ccc5c(c4)CN(C4CCC(=O)NC4=O)C5=O)C3)cc2c1 (stereo partly drawn) [6-{[(3S)-3-{[2-(2,6-dioxopiperidin-3-yl)-1-oxo-2,3-dihydro-1H-isoindol-5-yl]oxy}pyrrolidin-1-yl]methyl}quinoline-3-carbonitrile]	12.18
47	1430 nM	61.5 nM			N#Cc1ccc2cc(CN3CC[C@H](Oc4ccc5c(c4F)CN(C4CCC(=O)NC4=O)C5=O)C3)ccc2n1 (stereo partly drawn) [6-{[(3S)-3-{[2-(2,6-dioxopiperidin-3-yl)-4-fluoro-1-oxo-2,3-dihydro-1H-isoindol-5-yl]oxy}pyrrolidin-1-yl]methyl}quinoline-2-carbonitrile]	62.465
30.5	23.8 nM	5.28 nM			N#Cc1ccc2cc(CN3CC[C@H](Oc4cc5c(cc4F)C(=O)N(C4CCC(=O)NC4=O)C5)C3)ccc2n1 (stereo partly drawn) [6-{[(3S)-3-{[2-(2,6-dioxopiperidin-3-yl)-6-fluoro-1-oxo-2,3-dihydro-1H-isoindol-5-yl]oxy}pyrrolidin-1-yl]methyl}quinoline-2-carbonitrile]	8.55
100.5	> 10000 nM				N#Cc1ccc2cc(CN3CC[C@H](Oc4cc(F)c5c(c4)CN(C4CCC(=O)NC4=O)C5=O)C3)ccc2n1 (stereo partly drawn) [6-{[(3S)-3-{[2-(2,6-dioxopiperidin-3-yl)-7-fluoro-1-oxo-2,3-dihydro-1H-isoindol-5-yl]oxy}pyrrolidin-1-yl]methyl}quinoline-2-carbonitrile]	84.865
30.83	22.9 nM	20.2 nM			N#Cc1ccc2cc(CN3C[C@@H](Oc4ccc5c(c4)CN(C4CCC(=O)NC4=O)C5=O)C(F)(F)C3)ccc2n1 (stereo partly drawn) [6-{[(4R)-4-{[2-(2,6-dioxopiperidin-3-yl)-1-oxo-2,3-dihydro-1H-isoindol-5-yl]oxy}-3,3-difluoropyrrolidin-1-yl]methyl}quinoline-2-carbonitrile]	22.8
26.94	26.5 nM	3.55 nM			O=C1CC[C@@H](N2Cc3cc(O[C@H]4CCN(Cc5ccc6ncccc6c5)C4)ccc3C2=O)C(=O)N1 [(3R)-3-(1-oxo-5-{[(3S)-1-[(quinolin-6-yl)methyl]pyrrolidin-3-yl]oxy}-2,3-dihydro-1H-isoindol-2-yl)piperidine-2,6-dione]	12.45
		46.3 nM	31.07	23.8 nM	O=C1CC[C@@H](N2Cc3cc(O[C@H]4CCN(Cc5ccc6nc(N7CCOCC7)ncc6c5)C4)ccc3C2=O)C(=O)N1 [(3R)-3-(5-{[(3S)-1-{[2-(morpholin-4-yl)quinazolin-6-yl]methyl}pyrrolidin-3-yl]oxy}-1-oxo-2,3-dihydro-1H-isoindol-2-yl)piperidine-2,6-dione]	17.43
33	6.12 nM	6.75 nM			O=C1CC[C@@H](N2Cc3cc(O[C@H]4CCN(Cc5ccc6nc(C7CCOCC7)ccc6c5)C4)ccc3C2=O)C(=O)N1 [(3R)-3-(5-{[(3S)-1-{[2-(oxan-4-yl)quinolin-6-yl]methyl}pyrrolidin-3-yl]oxy}-1-oxo-2,3-dihydro-1H-isoindol-2-yl)piperidine-2,6-dione]	9.677
		9.49 nM	32.17	2.19 nM	O=C1CC[C@@H](N2Cc3cc(O[C@H]4CCN(Cc5cc(F)c6nc(C7CCOCC7)ccc6c5)C4)ccc3C2=O)C(=O)N1 [(3R)-3-(5-{[(3S)-1-{[8-fluoro-2-(oxan-4-yl)quinolin-6-yl]methyl}pyrrolidin-3-yl]oxy}-1-oxo-2,3-dihydro-1H-isoindol-2-yl)piperidine-2,6-dione]	9.2
31	14.6 nM	17.8 nM			O=C1CC[C@H](N2Cc3cc(O[C@H]4CCN(Cc5ccc6nc([C@H]7CCOC7)ncc6c5)C4)ccc3C2=O)C(=O)N1 [(3S)-3-(1-oxo-5-{[(3S)-1-({2-[(3R)-oxolan-3-yl]quinazolin-6-yl}methyl)pyrrolidin-3-yl]oxy}-2,3-dihydro-1H-isoindol-2-yl)piperidine-2,6-dione]	8.266
